The source of these data is US20110280827A1, “METHODS AND COMPOSITIONS FOR TREATING HEMATOLOGICAL MALIGNANCIES” (priority 2009, published 2011).

Data set [1] has as its system AML. Particulars: in combination with chemotherapy, compared to chemotherapy alone; cited from earlier work.
Data set [2] concerns pre-B-ALL cells. Particulars: in vitro; cited from earlier work.
The conditions of data set [3]: in vivo; cited from earlier work.
Data set [4] relates to Raji B-cell lymphoma cells. The experiment in a line: Disseminated Raji lymphoma model in SCID mice (survival, Kaplan-Meier). The format is in vivo.
Procedure: Four groups of 4- to 6-week-old SCID mice (8 animals each) were injected intravenously with 2×10^6 Raji B-cell lymphoma cells. The Raji cell line is a well-characterized human B-cell lymphoblastic line (CXCR4^+, CD19^+, CD20^+, CD22^+, CD52^+) derived from a patient with Burkitt's lymphoma (available from the American Tissue and Cell Collection, Manassas, Va.). Starting on day 7 after the injection, three of the four groups were administered subcutaneous AMD3465 daily (Monday-Friday regimen) at 0.1 mg/kg, 0.5 mg/kg or 1.0 mg/kg body weight.
For data set [5], the system named is B104 B-cell lymphoma cells. The experiment in a line: Disseminated B104 lymphoma model in SCID mice (survival, Kaplan-Meier). The format is in vivo.
Procedure: Five groups of 4- to 6-week-old SCID mice (8 animals each) were injected intravenously with 1×10^6 B104 B-cell lymphoma cells. […] Starting on day 7 after the injection, one group was administered CAMPATH® (alemtuzumab) weekly at 10 mg/kg; a second group was administered AMD3465 three times a week (Monday, Wednesday, Friday regimen) at 5.0 mg/kg; a third group was administered CAMPATH® (alemtuzumab) weekly at 10 mg/kg and AMD3465 three times a week (Monday, Wednesday, Friday regimen) at 1.0 mg/kg; and a fourth group was administered CAMPATH® (alemtuzumab) weekly at 10 mg/kg and AMD3465 three times a week (Monday, Wednesday, Friday regimen) at 5.0 mg/kg. […] The treatment was terminated on day 42.
Four groups of 4- to 6-week-old SCID mice (8 animals each) were injected intravenously with 1×10^6 B104 B-cell lymphoma cells. Starting on day 10 after the injection, one group was administered CAMPATH® (alemtuzumab) weekly at 10 mg/kg; a second group was administered AMD3465 daily (Monday-Friday regimen) at 5.0 mg/kg; and a third group was administered CAMPATH® (alemtuzumab) weekly at 10 mg/kg and AMD3465 daily (Monday-Friday regimen) at 5.0 mg/kg body weight.
For data set [6], the system named is stroma-cocultured Jurkat cells, primary CLL cells, subset of AML cells harboring Flt3 mutation. The note with it: in vitro, stroma coculture; cited from earlier work.

Molecules are shown by their SMILES.

Regarding `c1cc(CN2CCCNCCNCCCNCC2)ccc1CN1CCCNCCNCCCNCC1` [AMD3100], in data set [1], the overall survival entry is reported as “improved overall survival” and the tumor burden entry was “decreased tumor burden”. In data set [2], the “SDF-1/CXCL12 induced chemotaxis of pre-B-ALL cells into bone marrow stroma layers” value is given as “blocked”; the “cytotoxic and antiproliferative effects of vincristine and dexamethasone” value is recorded as “enhanced”. Besides, the “white blood cell count” value in data set [3] is recorded as “increasing the white blood cell count”.
Regarding `c1ccc(CNCc2ccc(CN3CCCNCCNCCCNCC3)cc2)nc1` [AMD3465], the mean survival entry in data set [4] (5.0 mg/kg AMD3465 alone daily (M-F) from day 7) was “did not have a significant effect”; in data set [4] (AMD3465 alone s.c. daily (M-F) at 0.1, 0.5 or 1.0 mg/kg from day 7, each concentration tested, vs control), “significantly increased”; in data set [5] (5.0 mg/kg AMD3465 alone daily (M-F) from day 10), “did not have a significant effect”; in data set [5] (5.0 mg/kg AMD3465 alone three times a week (M, W, F) from day 7), “did not have a significant effect”. Also, the “dose dependence of the survival effect” value in data set [4] (AMD3465 alone 0.1, 0.5, 1.0 mg/kg, reverse dose-response) is recorded as “stronger effect observed at the lower concentrations”. Further, the chemotherapy-induced apoptosis entry in data set [6] was “significantly enhanced”. Also, the overall survival result in data set [1] is given as “improved overall survival”. The tumor burden result in data set [1] is “decreased tumor burden”.
